In ChEMBL document CHEMBL4052765, “Synthesis and antibacterial evaluation of novel 11-O-carbamoyl clarithromycin ketolides” (2017):
Values after ≈ are worked out from the molar mass of the structure shown.

What was measured:
Type in all cases: functional
[1] = test system: Streptococcus pneumoniae; assay: Antibacterial activity against erythromycin-resistant Streptococcus pneumoniae AB11 harboring harboring mef and erm gene after 24 h by NCCLS broth microdilution method; conditions: AB11, 24 h
[2] = test system: Streptococcus pyogenes; assay: Antibacterial activity against erythromycin-resistant Streptococcus pyogenes R1 after 24 h by NCCLS broth microdilution method; conditions: R1, 24 h
[3] = test system: Streptococcus pneumoniae; assay: Antibacterial activity against erythromycin-resistant Streptococcus pneumoniae A22072 harboring mef gene after 24 h by NCCLS broth microdilution method; conditions: A22072, 24 h
[4] = test system: Streptococcus pneumoniae; assay: Antibacterial activity against erythromycin-resistant Streptococcus pneumoniae B1 harboring erm gene after 24 h by NCCLS broth microdilution method; conditions: B1, 24 h
[5] = test system: Staphylococcus aureus; assay: Antibacterial activity against […] Staphylococcus aureus ATCC 29213 after 24 h by NCCLS broth microdilution method; conditions: ATCC 29213, 24 h
[6] = test system: Bacillus subtilis; assay: Antibacterial activity against penicillin-susceptible Bacillus subtilis ATCC 9372 after 24 h by NCCLS broth microdilution method; conditions: ATCC 9372, 24 h
[7] = test system: Pseudomonas aeruginosa; assay: Antibacterial activity against penicillin-susceptible Pseudomonas aeruginosa ATCC 27853 after 24 h by NCCLS broth microdilution method; conditions: ATCC 27853, 24 h
[8] = test system: Streptococcus pyogenes; assay: Antibacterial activity against erythromycin-susceptible Streptococcus pyogenes after 24 h by NCCLS broth microdilution method
[9] = test system: Escherichia coli; assay: Antibacterial activity against penicillin-susceptible Escherichia coli ATCC 25922 after 24 h by NCCLS broth microdilution method; conditions: ATCC 25922, 24 h
[10] = test system: Staphylococcus aureus; assay: Antibacterial activity against erythromycin-susceptible Staphylococcus aureus ATCC 25923 after 24 h by NCCLS broth microdilution method; conditions: ATCC 25923, 24 h

| SMILES | MIC [1] [µg/mL] | MIC [2] [µg/mL] | MIC [3] [µg/mL] | MIC [4] [µg/mL] | MIC [5] [µg/mL] | MIC [6] [µg/mL] | MIC [7] [µg/mL] | MIC [8] [µg/mL] | MIC [9] [µg/mL] | MIC [10] [µg/mL] |
| --- | --- | --- | --- | --- | --- | --- | --- | --- | --- | --- |
| CC[C@H]1OC(=O)[C@H](C)C(=O)[C@H](C)[C@@H](O[C@@H]2O[C@H](C)C[C@H](N(C)C)[C@H]2O)[C@](C)(OC)C[C@@H](C)C(=O)[C@H](C)[C@@H](OC(=O)NCCNC(=O)/C=C/c2ccc(O)cc2)[C@]1(C)O | 128 (≈ 156 µM) | > 128 | 4 (≈ 4.88 µM) | 128 (≈ 156 µM) | 32 (≈ 39 µM) | 8 (≈ 9.76 µM) | 128 (≈ 156 µM) | 4 (≈ 4.88 µM) | > 128 | 32 (≈ 39 µM) |
| CC[C@H]1OC(=O)[C@H](C)C(=O)[C@H](C)[C@@H](O[C@@H]2O[C@H](C)C[C@H](N(C)C)[C@H]2O)[C@](C)(OC)C[C@@H](C)C(=O)[C@H](C)[C@@H](OC(=O)NCCNC(=O)/C=C/c2ccc(F)cc2)[C@]1(C)O | 64 (≈ 77.9 µM) | > 128 | 4 (≈ 4.87 µM) | 128 (≈ 156 µM) | 128 (≈ 156 µM) | 8 (≈ 9.73 µM) | > 128 | 2 (≈ 2.43 µM) | > 128 | 32 (≈ 38.9 µM) |
| CC[C@H]1OC(=O)[C@H](C)C(=O)[C@H](C)[C@@H](O[C@@H]2O[C@H](C)C[C@H](N(C)C)[C@H]2O)[C@](C)(OC)C[C@@H](C)C(=O)[C@H](C)[C@@H](OC(=O)NCCNC(=O)/C=C/c2ccc(Br)cc2)[C@]1(C)O | 128 (≈ 145 µM) | > 128 | 2 (≈ 2.27 µM) | 128 (≈ 145 µM) | 64 (≈ 72.5 µM) | 4 (≈ 4.53 µM) | > 128 | 2 (≈ 2.27 µM) | > 128 | 32 (≈ 36.2 µM) |
| CC[C@H]1OC(=O)[C@H](C)C(=O)[C@H](C)[C@@H](O[C@@H]2O[C@H](C)C[C@H](N(C)C)[C@H]2O)[C@](C)(OC)C[C@@H](C)C(=O)[C@H](C)[C@@H](OC(=O)NCCNC(=O)c2ccc(C(C)(C)C)cc2)[C@]1(C)O | 128 (≈ 153 µM) | 128 (≈ 153 µM) | 4 (≈ 4.8 µM) | 128 (≈ 153 µM) | 128 (≈ 153 µM) | 4 (≈ 4.8 µM) | > 128 | 16 (≈ 19.2 µM) | > 128 | 128 (≈ 153 µM) |
| CC[C@H]1OC(=O)[C@H](C)C(=O)[C@H](C)[C@@H](O[C@@H]2O[C@H](C)C[C@H](N(C)C)[C@H]2O)[C@](C)(OC)C[C@@H](C)C(=O)[C@H](C)[C@@H](OC(=O)NCCNC(=O)/C=C/c2ccc([N+](=O)[O-])cc2)[C@]1(C)O | 128 (≈ 151 µM) | > 128 | 1 (≈ 1.18 µM) | 128 (≈ 151 µM) | 128 (≈ 151 µM) | 4 (≈ 4.71 µM) | 128 (≈ 151 µM) | 1 (≈ 1.18 µM) | > 128 | 32 (≈ 37.7 µM) |
| CC[C@H]1OC(=O)[C@H](C)C(=O)[C@H](C)[C@@H](O[C@@H]2O[C@H](C)C[C@H](N(C)C)[C@H]2O)[C@](C)(OC)C[C@@H](C)C(=O)[C@H](C)[C@@H](OC(=O)NCCNC(=O)/C=C/c2ccccc2)[C@]1(C)O | 64 (≈ 79.6 µM) | > 128 | 4 (≈ 4.98 µM) | 128 (≈ 159 µM) | 128 (≈ 159 µM) | 8 (≈ 9.95 µM) | > 128 | 4 (≈ 4.98 µM) | > 128 | 32 (≈ 39.8 µM) |
| CC[C@H]1OC(=O)[C@H](C)C(=O)[C@H](C)[C@@H](O[C@@H]2O[C@H](C)C[C@H](N(C)C)[C@H]2O)[C@](C)(OC)C[C@@H](C)C(=O)[C@H](C)[C@@H](OC(=O)NCCNC(=O)/C=C/c2ccc(Cl)cc2Cl)[C@]1(C)O | 128 (≈ 147 µM) | 64 (≈ 73.3 µM) | 2 (≈ 2.29 µM) | 128 (≈ 147 µM) | 32 (≈ 36.7 µM) | 2 (≈ 2.29 µM) | > 128 | 2 (≈ 2.29 µM) | 128 (≈ 147 µM) | 8 (≈ 9.17 µM) |
| CC[C@H]1OC(=O)[C@H](C)C(=O)[C@H](C)[C@@H](O[C@@H]2O[C@H](C)C[C@H](N(C)C)[C@H]2O)[C@](C)(OC)C[C@@H](C)C(=O)[C@H](C)[C@@H](OC(=O)NCCNC(=O)c2ccc(OC)cc2)[C@]1(C)O | 64 (≈ 79.2 µM) | > 128 | 1 (≈ 1.24 µM) | 128 (≈ 158 µM) | 128 (≈ 158 µM) | 4 (≈ 4.95 µM) | > 128 | 2 (≈ 2.48 µM) | > 128 | 32 (≈ 39.6 µM) |
| CC[C@H]1OC(=O)[C@H](C)C(=O)[C@H](C)[C@@H](O[C@@H]2O[C@H](C)C[C@H](N(C)C)[C@H]2O)[C@](C)(OC)C[C@@H](C)C(=O)[C@H](C)[C@@H](OC(=O)NCCNC(=O)c2cccc(C)c2)[C@]1(C)O | 64 (≈ 80.8 µM) | > 128 | 8 (≈ 10.1 µM) | 128 (≈ 162 µM) | 128 (≈ 162 µM) | 8 (≈ 10.1 µM) | > 128 | 4 (≈ 5.05 µM) | > 128 | 32 (≈ 40.4 µM) |
